The record followed here is patent publication US20160166560A1, “Urea Compounds and Their Use as FAAH Enzyme Inhibitors” (BIAL-PORTELA & Cª, S.A., priority 2013, published 2016).

In data set [1] the target is T1, FAAH (Mus musculus, UniProt O08914).
T1 sequence (O08914 1-579): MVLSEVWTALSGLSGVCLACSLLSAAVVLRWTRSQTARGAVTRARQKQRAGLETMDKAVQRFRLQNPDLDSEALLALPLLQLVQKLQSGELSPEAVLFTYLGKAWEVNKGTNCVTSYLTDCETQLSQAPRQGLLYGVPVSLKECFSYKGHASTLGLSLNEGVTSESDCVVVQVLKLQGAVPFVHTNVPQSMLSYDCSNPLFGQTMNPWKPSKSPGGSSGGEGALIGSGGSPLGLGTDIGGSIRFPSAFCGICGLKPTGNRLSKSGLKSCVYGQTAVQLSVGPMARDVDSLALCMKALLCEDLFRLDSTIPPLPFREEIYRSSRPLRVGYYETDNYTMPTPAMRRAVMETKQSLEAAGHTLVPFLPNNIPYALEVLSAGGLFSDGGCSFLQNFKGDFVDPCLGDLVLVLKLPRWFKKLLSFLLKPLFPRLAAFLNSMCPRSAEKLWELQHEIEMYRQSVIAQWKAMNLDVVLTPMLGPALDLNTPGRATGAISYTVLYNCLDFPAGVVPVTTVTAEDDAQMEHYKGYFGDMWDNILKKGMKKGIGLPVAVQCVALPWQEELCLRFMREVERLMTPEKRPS
In words: In vitro/ex vivo FAAH activity determination in brain after intra-tracheal instillation. The conditions noted are these: remaining enzymatic activity vs controls, 1 mg/kg intra-tracheal instillation, sacrificed after 8 h. Set-up: Liver and brain fragments were removed and processed for enzymatic activity determination; from tissue; species or system male NMRI mice. The method, then:
(§1) To evaluate the selectivity of test compounds in inhibiting FAAH activity, male NMRI mice were administrated following instillation with 1 mg/kg compound and were sacrificed after 8 h treatment. Liver and brain fragments were removed and processed for enzymatic activity determination.
(§2) FAAH activity was measured as the amount of ^3H-ethanolamine formed, by liquid scintillation counting, from the hydrolysis of the substrate anandamide (AEA, labeled with ^3H on the ethanolamine part of the molecule). The percentage of remaining enzymatic activity was calculated in respect to controls and after blank subtraction. Therefore, a low value for the test compounds indicates a strong inhibitor.
(§3) Male NMRI mice (body weight range: 25-35 g) were obtained from Harlan Laboratories (Barcelona, Spain). Animals were kept 10 per cage, under controlled environmental conditions (12 hr light [8 am]/12 hr dark [8 pm]cycle; room temperature 22±1° C.). Food and tap water were allowed ad libitum. Animals were habituated to the animal facilities at least for a week prior to experiments. The experiments were all carried out during daylight hours.
(§4) Animals were fasted overnight before administration of compounds. […] After administration the animals were given atipamezole (1 mg/kg) to reverse the sedative and analgesic effects induced by the anaesthesia.
(§5) Fifteen minutes before sacrifice, animals were anesthetized with pentobarbital 60 mg/kg administrated intra-peritoneally. The brain (without cerebellum) and a fragment of liver were collected into plastic vials containing membrane buffer (3 mM MgCl2, 1 mM EDTA, 50 mM Tris HCl, pH 7.4). Glass beads (2.5 mm BioSpec Products, Bartlesville, Okla., USA) were added to the vials containing the brain and liver tissues. Tissues were stored at −20° C. until analysis.
(§6) Anandamide [ethanolamine-1-^3H-] was obtained from American Radiochemicals—with a specific activity of 60 Ci/mmol. All other reagents were obtained from Sigma-Aldrich. Optiphase Supermix was obtained from Perkin Elmer.
(§7) Brain and liver tissues were thawed and homogenized in 10 volumes of membrane buffer (3 mM MgCl2, 1 mM EDTA, 50 mM Tris HCl, pH 7.4) with homogenizer Precellys 24 Dual Tissue Homogenizer (Bertin Technologies) for 2 cycles of 5 sec (5000 rpm).
(§8) Total protein in the tissue homogenates was determined with the BioRad Protein Assay (BioRad) using a standard curve of BSA ([…]). Tissue homogenates were diluted to appropriate concentration for enzymatic determination in assay buffer (1 mM EDTA, 10 mM Tris HCl, pH 7.6).
(§9) Reaction mix (total volume 200 μL) contained 2 μM AEA (2 μM AEA+5 nM ^3H-AEA), 0.1% fatty acid free BSA, 15 μg (brain) or 5 μg (liver) protein, in assay buffer (1 mM EDTA, 10 mM Tris pH 7.6).
(§10) The test compound was used at a level of 1 mg/kg protein. After 15 minutes pre-incubation at 37° C. of the protein sample, reaction was started by the addition of the substrate solution (cold AEA+radiolabelled AEA+BSA). Reaction was carried out for 12 minutes for brain and liver tissues. Reaction was terminated by addition of 400 μL chloroform:methanol (1:1, v/v) solution. Reaction samples were vortex twice, left on ice for 5 minutes and then centrifuged in the microfuge for 7 minutes, 7000 rpm. 200 μL of the obtained supernatants were added to […] Optiphase Supermix scintillation cocktail previously distributed in 24-well plates.
(§11) Counts per minute (cpm) were determined in a Microbeta TriLux scintillation counter. In each assay blank samples (without protein) were prepared.

The target in data set [2] is T1, FAAH. Description: In vitro/ex vivo FAAH activity determination in liver after intra-tracheal instillation. Set-up: Liver and brain fragments were removed and processed for enzymatic activity determination; from tissue; host or cells: mouse liver fragment homogenate; species or system male NMRI mice. To be noted: remaining enzymatic activity vs controls, 1 mg/kg intra-tracheal instillation, sacrificed after 8 h. As to the method:
as §1, §2, §3, §4, §5, §6, §7, §8, §9, §10, §11

Another data set relates to CYPs. In words: CYPs metabolic stability assay in HLM (human liver microsomes). In kind it is in vitro ADME. To be noted: HLM 1 mg/ml protein, compound 5 μM, 60 min, 37° C.; for Control (% remain): absence of NADPH; for CYP+ (% remain): with NADPH 1 mM. The method, then:
Stability of the test compounds was performed in HLM (human liver microsomes) in the presence and in the absence of NADPH.
The stability was measured using the incubation mixture (100 μl total volume) contained 1 mg/ml total protein, MgCl2 5 mM and 50 mM K-phosphate buffer. Samples were incubated in the presence and in the absence of NADPH 1 mM. Reactions were pre-incubated 5 min and the reaction initiated with the compound under test (at a concentration of 5 μM). Samples were incubated for 60 min in a shaking water bath at 37° C. The reaction was stopped by adding 100 μl of acetonitrile. Samples were then centrifuged, filtered and supematant injected in HLPC-MSD. Test compounds were dissolved in DMSO and the final concentration of DMSO in the reaction was below 0.5% (v/v). At T0 acetonitrile was added before adding the compound. All experiments were performed with samples in duplicate.
For orientation: Liver microsomes are vesicles of endoplasmic reticulum, rich in cytochrome P450 enzymes.

Counter-ions that a name gives are not always drawn.

As to `COc1cccc(CN2CCC(N(C)C(=O)n3cnc(-c4cccc(NS(C)(=O)=O)c4)c3)CC2)c1` [Example 4, N-(1-(3-methoxybenzyl)piperidin-4-yl)-N-methyl-4-(3-(methylsulfonamido)phenyl)-1H-imidazole-1-carboxamide hydrochloride], at FAAH [1], the “FAAH Activity - Brain itc (% C)” value turned out to be 98.7 % C. The “FAAH Activity - Liver itc (% C)” value on FAAH [2] was 7.2 % C. Also, in the data set on CYPs, the “Control (% remain)” value came to 100 % remain and the “CYP+ (% remain)” value is 11.2 % remain.
For `CN(C(=O)n1cnc(-c2cccc(OS(N)(=O)=O)c2)c1)C1CCN(c2ccc(O)cc2)CC1` [Example 15, 3-(1-((1-(4-hydroxyphenyl)piperidin-4-yl)(methyl)carbamoyl)-1H-imidazol-4-yl)phenyl sulfamate hydrochloride], the “FAAH Activity - Brain itc (% C)” value on FAAH [1] turned out to be 91.1 % C. Further, the “FAAH Activity - Liver itc (% C)” value on FAAH [2] is given as 3.0 % C. In the data set with CYPs, the “Control (% remain)” value was found to be 94.4 % remain and the “CYP+ (% remain)” value is 87.1 % remain.
In the case of `COc1cc(CN2CCC(N(C)C(=O)n3cnc(-c4ccc(OS(N)(=O)=O)cc4)c3)CC2)cc(OC)c1` [Example 27, 4-(1-((1-(3,5-dimethoxybenzyl)piperidin-4-yl)(methyl)carbamoyl)-1H-imidazol-4-yl)phenyl sulfamate methanesulfonate], at FAAH [1] (methanesulfonate, 1 mg/kg), the “FAAH Activity - Brain itc (% C)” value is reported as 84.3 % C. For the same compound, the “FAAH Activity - Liver itc (% C)” value on FAAH [2] (methanesulfonate, 1 mg/kg) worked out at 13.9 % C. Besides, in the data set on CYPs (methanesulfonate), the “Control (% remain)” value was 96.9 % remain and the “CYP+ (% remain)” value was 26.7 % remain.
Consider `CN(C(=O)n1cnc(-c2cccc(NC(N)=O)c2)c1)C1CCN(Cc2ccccc2)CC1` [Example 22, N-(1-benzylpiperidin-4-yl)-N-methyl-4-(3-ureidophenyl)-1H-imidazole-1-carboxamide methanesulfonate], for which the “FAAH Activity - Brain itc (% C)” value on FAAH [1] (methanesulfonate, 1 mg/kg) came to 113.8 % C. Further, the “FAAH Activity - Liver itc (% C)” value on FAAH [2] (methanesulfonate, 1 mg/kg) is given as 10.7 % C.
In the case of `COc1ccc(CN2CCC(N(C)C(=O)n3cnc(-c4cccc(NS(C)(=O)=O)c4)c3)CC2)cc1OC` [Example 5, N-(1-(3,4-dimethoxybenzyl)piperidin-4-yl)-N-methyl-4-(3-(methylsulfonamido)phenyl)-1H-imidazole-1-carboxamide hydrochloride], at FAAH [1], the “FAAH Activity - Brain itc (% C)” value amounted to 104.7 % C. On FAAH [2], the “FAAH Activity - Liver itc (% C)” value came to 5.7 % C. For the same compound, in the data set with CYPs, the “Control (% remain)” value came out at 100 % remain and the “CYP+ (% remain)” value is 77.3 % remain.
As to `CN(C(=O)n1cnc(-c2cccc(NS(N)(=O)=O)c2)c1)C1CCN(Cc2ccccc2)CC1` [Example 2, N-(1-benzylpiperidin-4-yl)-N-methyl-4-(3-(sulfamoylamino)phenyl)-1H-imidazole-1-carboxamide hydrochloride], the “FAAH Activity - Brain itc (% C)” value at FAAH [1] turned out to be 86.8 % C. Besides, the “FAAH Activity - Liver itc (% C)” value at FAAH [2] is recorded as 5.1 % C. In the data set on CYPs, the “Control (% remain)” value was determined as 98.3 % remain and the “CYP+ (% remain)” value was 68.6 % remain.
In the case of `CN(C(=O)n1cnc(-c2cccc(C(N)=O)c2)c1)C1CCN(c2ccccc2O)CC1` [Example 37, 4-(3-carbamoylphenyl)-N-(1-(2-hydroxyphenyl)piperidin-4-yl)-N-methyl-1H-imidazole-1-carboxamide hydrochloride], at FAAH [1], the “FAAH Activity - Brain itc (% C)” value was determined as 110.2 % C. Also, at FAAH [2], the “FAAH Activity - Liver itc (% C)” value turned out to be 3.4 % C.
`COc1cccc(CN2CCC(N(C)C(=O)n3cnc(-c4cccc(NS(N)(=O)=O)c4)c3)CC2)c1.O=C(O)/C=C\C(=O)O.O=C(O)/C=C\C(=O)O` [Example 20, N-(1-(3-methoxybenzyl)piperidin-4-yl)-N-methyl-4-(3-(sulfamoylamino)phenyl)-1H-imidazole-1-carboxamide dimaleate]: the “FAAH Activity - Brain itc (% C)” value on FAAH [1] was 86.4 % C. Moreover, on FAAH [2], the “FAAH Activity - Liver itc (% C)” value is 15.8 % C.
`COc1cc(CN2CCC(N(C)C(=O)n3cnc(-c4ccc(OS(N)(=O)=O)cc4)c3)CC2)cc(OC)c1` [Example 19, 4-(1-((1-(3,5-dimethoxybenzyl)piperidin-4-yl)(methyl)carbamoyl)-1H-imidazol-4-yl)phenyl sulfamate maleate]: at FAAH [1] (maleate, 1 mg/kg), the “FAAH Activity - Brain itc (% C)” value is reported as 99.2 % C. Also, at FAAH [2] (maleate, 1 mg/kg), the “FAAH Activity - Liver itc (% C)” value was 9.2 % C.
`CN(C(=O)n1cnc(-c2cccc(C(N)=O)c2)c1)C1CCN(Cc2ccccc2O)CC1` [Example 36, 4-(3-carbamoylphenyl)-N-(1-(2-hydroxybenzyl)piperidin-4-yl)-N-methyl-1 H-imidazole-1-carboxamide hydrochloride]: the “FAAH Activity - Brain itc (% C)” value at FAAH [1] is listed as 94.4 % C. The “FAAH Activity - Liver itc (% C)” value at FAAH [2] came out at 8.6 % C.
In the case of `COc1cccc(CN2CCC(N(C)C(=O)n3cnc(-c4cccc(C(N)=O)c4)c3)CC2)c1` [Example 13, 4-(3-carbamoylphenyl)-N-(1-(3-methoxybenzyl)piperidin-4-yl)-N-methyl-1H-imidazole-1-carboxamide hydrochloride], in the data set on CYPs, the “Control (% remain)” value is 103.5 % remain and the “CYP+ (% remain)” value was 25.1 % remain.
Consider `COc1ccccc1CN1CCC(N(C)C(=O)n2cnc(-c3cccc(C(N)=O)c3)c2)CC1` [Example 38, 4-(3-carbamoylphenyl)-N-(1-(2-methoxybenzyl)piperidin-4-yl)-N-methyl-1H-imidazole-1-carboxamide hydrochloride], for which, at FAAH [1], the “FAAH Activity - Brain itc (% C)” value is given as 96.5 % C. The “FAAH Activity - Liver itc (% C)” value at FAAH [2] was 6.0 % C.
